Consider 3 compounds from patent US20050256134A1, “Use of creatine analogues and creatine kinase modulators for the prevention and treatment of glucose metabolic disorders” (AVICENA GROUP, INC., priority 1995, published 2005).

The test system of one series is rats. The following applies: intravenous; cited from earlier work.
The test system of series [1] is female Fisher 344 rats bearing rat mammary adenocarcinoma 13762. Kind of series: Effect of creatine compounds on glucose levels in rats bearing tumors (i.v., days 4-8 and 14-18). In kind it is in vivo. The following applies: for Glucose Levels: i.v. days 4-8 and 14-18. As for the experimental part: Two creatine compounds, creatine phosphate and cyclocreatine, were injected intravenously into tumor bearing rats, and the level of glucose in the rats was monitored. Beta guanidino propionic acid, also was administered. […] There was no specific reason for using tumor bearing rats, except convenience because the antitumor activity of these compounds also was being studied. The presence of the tumors should not have any effect on the ability of these compounds to regulate glucose levels. The rats carrying the tumors were described by us previously (see, […] et al., Cancer Chemother. Pharmacol, 35: 411-416, 1995). The schedule and dose selected in these experiments was based on prior experience working with this class of compounds as anticancer or antiviral chemotherapeutic agents. The rat mammary adenocarcinoma 13762 was implanted in the female Fisher 344 rats on day zero. The creatine compounds were administered intravenously on days 4-8 and days 14-18. The amounts used were 1 gm/kg of cyclocreatine, 0.93 gm/kg for beta guanidino propionic acid, and 2.32 gm/kg for creatine phosphate. […] Plasma glucose levels were measured at around 11 a.m., by taking a drop of blood from the animals and testing glucose levels using a commercial kit ([…] bG, Boehringer Mannheim). For animals that were treated with drugs, the treatment was around 9 a.m., and bleeding was also at around 11 a.m. To examine more closely what occurred in the above two experiments, the average readings of glucose levels from experiments one and two were taken in the following time intervals post drug treatment: Days 2-3, Days 4-8, Days 8-12, Days 14-18, Day 15 and Days 19-22.

The subject of series [2] is normal animals and a model for non-insulin dependent diabetes mellitus. The following applies: cited from earlier work.
For series [3] the following is noted: in vivo; cited from earlier work.

Like-named read-outs stand apart in the source and are kept apart here.

For `N=C(N)NCCC[C@H](N)C(=O)O` [Arginine], in the series on rats, the Glucose Levels entry was “did not affect glucose levels” and the insulin release entry was “stimulated insulin release”.
Take `N=C(N)NCCC(=O)O` [beta guanidino propionic acid]: the Glucose Levels result is given as “Minimal changes in glucose levels” in series [1] (Example 1); “minimal effect” in series [1] (Example 2 (repeat)); “did not affect glucose levels” with rats; “not to affect glucose levels” in series [2] (large amounts for several weeks); “had an effect on glucose levels” in series [2] (model for non-insulin dependent diabetes mellitus); “not to affect glucose levels” in series [2] (normal animals). Also, the “effects on glucose level” value in series [1] (average of experiments one and two) is reported as under 15%. Moreover, the insulin release result in the series with rats is given as “stimulated insulin release”.
For the compound Augmentin, in series [3], the hypoglycemic effect entry was “produced hypoglycemia”; the undesirable side effects entry was “hypertension and circulatory collapse”.
